# Experimental data published in US20100267784A1, “NOVEL 4,5-DIHYDROISOXAZOLES WITH ESTROGENIC ACTIVITY” (priority 2007, published 2010).
# “And” between values parts separate entries of the source, which are not always exact repeats. Identical values can stand only once.
# Key:
# [1] = target: T1, ERα (Homo sapiens, UniProt P03372); assay: ERα reporter (luciferase) transactivation assay in transfected HEK293 cells; format: cell-based; set-up: expressed in transfected cells; host or cells: HEK293; details: sample concentration 10 μM, 24 hours, mean of at least three independent transfections
# T1 sequence (P03372 1-595): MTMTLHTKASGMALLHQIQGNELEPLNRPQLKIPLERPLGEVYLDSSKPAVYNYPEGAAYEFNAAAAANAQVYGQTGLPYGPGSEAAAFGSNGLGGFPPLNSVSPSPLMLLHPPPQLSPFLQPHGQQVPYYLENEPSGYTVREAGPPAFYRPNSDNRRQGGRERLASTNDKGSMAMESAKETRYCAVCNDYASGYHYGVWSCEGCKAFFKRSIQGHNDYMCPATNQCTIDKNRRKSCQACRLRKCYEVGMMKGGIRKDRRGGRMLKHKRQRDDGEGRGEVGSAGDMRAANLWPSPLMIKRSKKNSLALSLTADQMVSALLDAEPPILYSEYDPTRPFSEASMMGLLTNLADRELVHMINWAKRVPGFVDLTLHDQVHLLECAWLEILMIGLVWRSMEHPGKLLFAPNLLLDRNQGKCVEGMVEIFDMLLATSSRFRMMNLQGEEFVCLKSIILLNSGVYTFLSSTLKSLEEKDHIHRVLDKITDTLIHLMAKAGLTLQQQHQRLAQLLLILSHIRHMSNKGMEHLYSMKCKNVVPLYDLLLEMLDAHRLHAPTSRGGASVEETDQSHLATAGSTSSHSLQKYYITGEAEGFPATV
# Procedure: (§1) Determination of the Estrogen Activity of the Compounds: Cell Culture, Transfection and Reporter Assays
# (§2) All other reagents were of reagent grade from Sigma or Fluka. One day before transfection, HEK293 cells were seeded in 48-well plates (70×10^3 cells per well) in phenol-free Dulbecco's modified Eagle medium supplemented with 5% delipidated fetal bovine serum (Sigma) and antibiotics. After a medium change, the cells were transfected for 4 hours with 5 ng ERα or ERβ expression vector, 75 ng reporter plasmid pERE2TATA-LUC and 20 ng control plasmid pCMVβ by the calcium phosphate method. After transfection, the cells received fresh medium containing either vehicle (0.1% v/v) or test compound (10 μM). After 24 hours, the cells were washed, lysed and luciferase and β-galactosidase activities were determined from 20 μl of lysates with the Victor^2TM reader (PerkinElmer Wallac, Turku, Finland). […] The data are means ±SEM of at least three independent transfections.
# [2] = target: ERβ (Homo sapiens, UniProt Q92731); assay: ERβ reporter (luciferase) transactivation assay in transfected HEK293 cells; format: cell-based; set-up: expressed in transfected cells; host or cells: HEK293; details: for ERβ receptor activation relative to 10 nM E2 corresponding 100: sample concentration 10 μM, 24 hours, mean of at least three independent transfections; for activation at 10 µM: HEK293, 24 h, read-out: ERβ receptor activation relative to 10 nM E2 corresponding 100, sample concentration 10 μM, mean of at least three independent transfections
# Procedure: as §1, §2
# Sequence of ERβ (Q92731 whole entry): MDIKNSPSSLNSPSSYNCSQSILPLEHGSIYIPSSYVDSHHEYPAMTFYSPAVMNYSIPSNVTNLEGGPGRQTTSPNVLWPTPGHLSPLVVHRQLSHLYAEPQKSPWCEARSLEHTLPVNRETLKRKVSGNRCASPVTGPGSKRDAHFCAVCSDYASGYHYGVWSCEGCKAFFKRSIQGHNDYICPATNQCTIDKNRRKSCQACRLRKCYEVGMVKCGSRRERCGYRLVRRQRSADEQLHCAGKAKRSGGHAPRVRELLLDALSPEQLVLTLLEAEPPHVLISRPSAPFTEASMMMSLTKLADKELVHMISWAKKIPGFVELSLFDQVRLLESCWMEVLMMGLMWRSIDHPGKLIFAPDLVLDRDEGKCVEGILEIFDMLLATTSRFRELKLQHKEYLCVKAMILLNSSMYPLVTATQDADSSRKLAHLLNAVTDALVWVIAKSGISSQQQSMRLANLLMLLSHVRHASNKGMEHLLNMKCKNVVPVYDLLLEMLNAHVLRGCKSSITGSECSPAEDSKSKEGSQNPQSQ
Structure (SMILES),ERα receptor activation relative to 10 nM E2 corresponding 100 [1],ERβ receptor activation relative to 10 nM E2 corresponding 100 [2] [%],activation at 10 µM [2] [%],melting point [°C]
"Oc1ccc(CCC2=NOC(CCc3ccccc3)C2)cc1 (single isomer, unassigned) [106a, 3-[2-(4-Hydroxy-phenyl)-ethyl]-5-phenethyl-4,5-dihydro-isoxazole]",62.8%,15.4,–,–
"Oc1ccc(CCC2=NOC(CCc3ccccc3)C2)cc1 (single isomer, unassigned) [106b, 3-[2-(4-Hydroxy-phenyl)-ethyl]-5-phenethyl-4,5-dihydro-isoxazole]",15.8%,0.8,–,–
"c1ccc(CC2CC(c3ccccc3)=NO2)cc1 (single isomer, unassigned) [107a, 5-Benzyl-3-phenyl-4,5-dihydroisoxazole]",−1.0%,–,6.6,–
"c1ccc(CC2CC(c3ccccc3)=NO2)cc1 (single isomer, unassigned) [107b, 5-Benzyl-3-phenyl-4,5-dihydroisoxazole]",47.2%,12.8,–,–
"c1ccc(CCC2=NOC(Cc3ccccc3)C2)cc1 (single isomer, unassigned) [109a, 5-Benzyl-3-phenethyl-4,5-dihydroisoxazole]",68.4%,–,1.1,–
"c1ccc(CCC2=NOC(Cc3ccccc3)C2)cc1 (single isomer, unassigned) [109b, 5-Benzyl-3-phenethyl-4,5-dihydroisoxazole]",38.2%,1.3,–,–
"c1ccc(CCC2=NOC(c3ccccc3)C2)cc1 (single isomer, unassigned) [110a, 3-Phenethyl-5-phenyl-4,5-dihydroisoxazole]",16.4%,–,9.8,–
"c1ccc(CCC2=NOC(c3ccccc3)C2)cc1 (single isomer, unassigned) [110b, 3-Phenethyl-5-phenyl-4,5-dihydroisoxazole]",11.2%,8.1,–,–
"c1ccc(CCC2CC(c3ccccc3)=NO2)cc1 (single isomer, unassigned) [111a, 5-Phenethyl-3-phenyl-4,5-dihydroisoxazole]",22.8%,8.5,–,–
"c1ccc(CCC2CC(c3ccccc3)=NO2)cc1 (single isomer, unassigned) [111b, 5-Phenethyl-3-phenyl-4,5-dihydroisoxazole]",1.1%,−6.0,–,–
"c1ccc(CCCC2=NOC(Cc3ccccc3)C2)cc1 (single isomer, unassigned) [114a, 5-Benzyl-3-(3-phenyl-propyl)-4,5-dihydro-isoxazole]",31.3%,13.6,–,–
"c1ccc(CCCC2=NOC(Cc3ccccc3)C2)cc1 (single isomer, unassigned) [114b, 5-Benzyl-3-(3-phenyl-propyl)-4,5-dihydro-isoxazole]",28.1%,5.1,–,–
"c1ccc(CCC2=NOC(CCc3ccccc3)C2)cc1 (single isomer, unassigned) [116a, 3,5-Di-phenethyl-4,5-dihydroisoxazole]",3.4%,0.2,–,–
"c1ccc(CCC2=NOC(CCc3ccccc3)C2)cc1 (single isomer, unassigned) [116b, 3,5-Di-phenethyl-4,5-dihydroisoxazole]",43.9%,−0.4,–,–
"Fc1cccc(CC2=NOC(CCc3ccccc3)C2)c1 (stereo not drawn) [69ab, 3-(3-Fluorobenzyl)-5-phenethyl-4,5-dihydroisoxazole]",19.5% and 19.7%,–,10.6,–
"Oc1cccc(C2CC(Cc3ccccc3)=NO2)c1 (stereo not drawn) [82ab, 3-Benzyl-5-(3-hydroxy-phenyl)-4,5-dihydro-isoxazole]",21.6%,–,6.6,–

Structure (SMILES),ERα receptor activation relative to 10 nM E2 corresponding 100 [1],ERβ receptor activation relative to 10 nM E2 corresponding 100 [2] [%],activation at 10 µM [2] [%],melting point [°C]
"c1ccc(CCC2CC(Cc3ccccc3)=NO2)cc1 (stereo not drawn) [108ab, 3-Benzyl-5-phenethyl-4,5-dihydroisoxazole]",37.0%,–,1.2,–
"c1ccc(CC2=NOC(c3ccccc3)C2)cc1 (stereo not drawn) [112ab, 3-Benzyl-5-phenyl-4,5-dihydroisoxazole]",19.6%,–,34.4,–
"CC1(c2ccccc2)CC(CCCc2ccccc2)=NO1 (stereo not drawn) [115ab, 5-Methyl-5-phenyl-3-(3-phenyl-propyl)-4,5-dihydro-isoxazole]",69.5%,–,15.5,–
"COc1ccccc1C1=NOC(Cc2ccccc2)C1 (stereo not drawn) [compound 6, 5-Benzyl-3-(2-methoxyphenyl)-4,5-dihydroisoxazole]",–,–,–,81 to 82
"COc1ccc(C2=NOC(Cc3ccccc3)C2)cc1 (stereo not drawn) [compound 12, 5-Benzyl-3-(4-methoxyphenyl)-4,5-dihydroisoxazole]",–,–,–,99.6 to 100.3
"COc1ccc(CC2CC(c3ccc(OC)cc3)=NO2)cc1 (stereo not drawn) [compound 15, 5-(4-Methoxybenzyl)-3-(4-methoxyphenyl)-4,5-dihydroisoxazole]",–,–,–,135.8 to 137.7
"COc1ccc(C2=NOC(Cc3ccc(F)cc3)C2)cc1 (stereo not drawn) [compound 18, 5-(4-Fluorobenzyl)-3-(4-methoxyphenyl)-4,5-dihydroisoxazole]",–,–,–,116.7 to 118.7
"COc1ccc(C2=NOC(Cc3c(F)c(F)c(F)c(F)c3F)C2)cc1 (stereo not drawn) [compound 19, 3-(4-methoxyphenyl)-5-pentafluorobenzyl-4,5-dihydroisoxazole]",–,–,–,123 to 124
"Clc1ccc(C2=NOC(Cc3ccccc3)C2)cc1 (stereo not drawn) [compound 33, 5-Benzyl-3-(4-Chlorophenyl)-4,5-dihydroisoxazole]",–,–,–,128.2 to 129.4
"CCc1ccc(CC2CC(c3ccc(Cl)cc3)=NO2)cc1 (stereo not drawn) [compound 34, 3-(4-Chlorophenyl)-5-(4-ethylbenzyl)-4,5-dihydroisoxazole]",–,–,–,117.1 to 119.2
"COc1ccccc1CC1CC(c2ccc(Cl)cc2)=NO1 (stereo not drawn) [compound 36, 3-(4-Chlorophenyl)-5-(2-methoxybenzyl)-4,5-dihydroisoxazole]",–,–,–,109.9 to 111.2
"COc1ccc(CC2CC(c3ccc(Cl)cc3)=NO2)cc1 (stereo not drawn) [compound 38, 3-(4-Chlorophenyl)-5-(4-methoxybenzyl)-4,5-dihydroisoxazole]",–,–,–,126.2 to 127.3
"COc1ccc(CC2CC(c3ccc(Cl)cc3)=NO2)cc1OC (stereo not drawn) [compound 39, 3-(4-Chlorophenyl)-5-(3,4-dimethoxybenzyl)-4,5-dihydroisoxazole]",–,–,–,89 to 90.4
"Clc1ccc(C2=NOC(Cc3cccc4ccccc34)C2)cc1 (stereo not drawn) [compound 41, 3-(4-Chlorophenyl)-5-naphthalen-1-ylmethyl-4,5-dihydro-isoxazole]",–,–,–,127.9 to 130.9
"Clc1cccc(Cl)c1C1=NOC(Cc2ccccc2)C1 (stereo not drawn) [compound 42, 5-Benzyl-3-(2,6-dichlorophenyl)-4,5-dihydroisoxazole]",–,–,–,90 to 90.5
"COc1ccc(CC2CC(c3c(Cl)cccc3Cl)=NO2)cc1 (stereo not drawn) [compound 43, 3-(2,6-Dichlorophenyl)-5-(4-methoxybenzyl)-4,5-dihydroisoxazole]",–,–,–,90.1 to 90.6
